Experimental data reported in ChEMBL document CHEMBL1201862, “PubChem BioAssay data set” (2004).
Activity calls are given as the source filed them.

Tests used:
[1] = A549 cell cytotoxicity, dose response, cytotoxicity control, plate reader, cherry-pick, antagonist series (AID 743412); type: functional, cell-based
Prothrombin = Prothrombin (Homo sapiens, UniProt P00734); test: Thrombin 1536 HTS Dose Response Confirmation. [Related pubchem assays: 1046 (Thrombin 1536 HTS; hits were confirmed in this assay)]; type: functional
[2] = blockade of melanocortin 4 receptor signaling – cell-based, plate reader, cherry pick, counter-screen for LGR2 antagonist project, dose response (AID 743444); type: functional;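 note: transfected HEK 293 cells stimulated with alpha-MSH peptide; potency of inhibitors of the alpha-MSH evoked signal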
HEK293 = test: EBV LMP1 TES2 canonical NF-kB signalling blockers – cell-based, HEK293, luciferase, cherry-pick, dose response (AID 588343); type: functional; conditions: Homo sapiens
[3] = toxicity toward HepG2 liver cells – cell-based, plate reader, cherry-pick, antagonist series, cytotoxicity control, dose response (AID 743416); type: functional
[4] = blockers of bursicon-stimulated LGR2 cAMP reporter – cell-based, HEK293, CRE-luciferase reporter, cherry pick, set 2, dose response (AID 743343); type: functional;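 note: transfected cells were stimulated with diluted bursicon conditioned medium after compound addition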
[5] = viability of uninfected HEp-2 cells – cell-based, HTS, cytotoxicity control for RSV inhibitor project, dose response (AID 2410); type: functional; conditions: human respiratory syncytial virus
fMet-Leu-Phe receptor = target: T1, fMet-Leu-Phe receptor (Homo sapiens, UniProt P21462); test: formyl peptide receptor binders – dose response (AID 519); type: functional
T1 sequence (P21462 whole entry): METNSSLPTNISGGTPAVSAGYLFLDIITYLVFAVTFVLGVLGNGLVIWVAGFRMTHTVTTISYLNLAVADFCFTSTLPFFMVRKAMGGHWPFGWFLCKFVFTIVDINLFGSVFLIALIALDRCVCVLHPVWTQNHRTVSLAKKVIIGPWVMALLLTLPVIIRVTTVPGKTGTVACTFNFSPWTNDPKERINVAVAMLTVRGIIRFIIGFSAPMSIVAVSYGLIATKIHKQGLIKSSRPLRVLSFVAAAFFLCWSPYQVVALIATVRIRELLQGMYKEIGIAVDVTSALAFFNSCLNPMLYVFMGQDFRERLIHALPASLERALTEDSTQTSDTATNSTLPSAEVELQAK

Bcl-2-related protein A1 [6] = target: T2, Bcl-2-related protein A1 (Mus musculus, UniProt Q07440); test: small-molecule antagonists of Bfl-1/BH3 interaction – biochemical, TR-FRET, mouse Bfl-1, confirmation (AID 621);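 note: TR-FRET binding of GST-Bfl-1 to FITC-labelled Bid peptide via terbium antibody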
T2 sequence (Q07440 whole entry): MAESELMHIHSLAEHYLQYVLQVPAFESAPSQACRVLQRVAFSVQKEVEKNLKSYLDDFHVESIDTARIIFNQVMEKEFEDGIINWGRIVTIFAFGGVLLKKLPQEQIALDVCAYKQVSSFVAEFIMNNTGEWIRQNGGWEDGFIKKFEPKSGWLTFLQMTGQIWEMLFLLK

Bcl-2-related protein A1 [7] = target: T2, Bcl-2-related protein A1; test: Bfl-1 binding inhibitors, SAR follow-up, biochemical, fluorescence polarization (AID 1070)
[8] = target: Glyceraldehyde-3-phosphate dehydrogenase (Homo sapiens, UniProt P04406)
Chain of Glyceraldehyde-3-phosphate dehydrogenase (P04406 whole entry): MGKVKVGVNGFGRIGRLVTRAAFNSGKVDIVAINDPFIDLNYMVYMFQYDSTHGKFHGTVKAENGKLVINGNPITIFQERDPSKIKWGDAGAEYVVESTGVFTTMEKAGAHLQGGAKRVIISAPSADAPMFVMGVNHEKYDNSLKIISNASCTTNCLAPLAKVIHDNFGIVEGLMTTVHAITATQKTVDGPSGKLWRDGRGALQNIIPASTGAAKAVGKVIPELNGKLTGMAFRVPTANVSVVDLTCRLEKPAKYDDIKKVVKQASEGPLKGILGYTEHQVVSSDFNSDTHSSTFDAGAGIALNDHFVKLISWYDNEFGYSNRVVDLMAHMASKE

Cytochrome P450 2D6 = Cytochrome P450 2D6 (Homo sapiens, UniProt P10635); test: qHTS Assay for Inhibitors and Substrates of Cytochrome P450 2D6. [Related pubchem assays: 410 ]; type: ADME; conditions: read-out: Potency
Chain of Cytochrome P450 2D6 (P10635 whole entry): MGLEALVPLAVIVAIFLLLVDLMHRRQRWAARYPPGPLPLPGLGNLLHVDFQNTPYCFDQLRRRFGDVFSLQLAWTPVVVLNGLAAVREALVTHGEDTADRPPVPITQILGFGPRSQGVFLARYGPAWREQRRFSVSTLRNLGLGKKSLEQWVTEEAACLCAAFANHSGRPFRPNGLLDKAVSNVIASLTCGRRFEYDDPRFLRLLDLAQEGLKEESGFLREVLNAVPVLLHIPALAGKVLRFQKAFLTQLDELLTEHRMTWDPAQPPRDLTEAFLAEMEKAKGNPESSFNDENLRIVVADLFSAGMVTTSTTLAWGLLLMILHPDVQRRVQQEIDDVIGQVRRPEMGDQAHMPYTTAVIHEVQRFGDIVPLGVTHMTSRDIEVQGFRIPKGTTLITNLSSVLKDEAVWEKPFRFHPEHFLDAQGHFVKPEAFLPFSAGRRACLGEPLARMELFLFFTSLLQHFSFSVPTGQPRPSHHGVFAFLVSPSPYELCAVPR

[9] = inhibition of ADAM10 peptide cleavage – biochemical, FRET peptide substrate, recombinant human ADAM10, selectivity assay for ADAM17 exosite inhibitor project, dose response (AID 743259);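 note: ADAM10 enzyme cleaving a FRET peptide substrate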
[10] = target: Disintegrin and metalloproteinase domain-containing protein 17 (Homo sapiens, UniProt P78536); test: exosite inhibitors of ADAM17, dose response, biochemical (AID 743260)
Chain of Disintegrin and metalloproteinase domain-containing protein 17 (P78536 whole entry, the tested form may be a part): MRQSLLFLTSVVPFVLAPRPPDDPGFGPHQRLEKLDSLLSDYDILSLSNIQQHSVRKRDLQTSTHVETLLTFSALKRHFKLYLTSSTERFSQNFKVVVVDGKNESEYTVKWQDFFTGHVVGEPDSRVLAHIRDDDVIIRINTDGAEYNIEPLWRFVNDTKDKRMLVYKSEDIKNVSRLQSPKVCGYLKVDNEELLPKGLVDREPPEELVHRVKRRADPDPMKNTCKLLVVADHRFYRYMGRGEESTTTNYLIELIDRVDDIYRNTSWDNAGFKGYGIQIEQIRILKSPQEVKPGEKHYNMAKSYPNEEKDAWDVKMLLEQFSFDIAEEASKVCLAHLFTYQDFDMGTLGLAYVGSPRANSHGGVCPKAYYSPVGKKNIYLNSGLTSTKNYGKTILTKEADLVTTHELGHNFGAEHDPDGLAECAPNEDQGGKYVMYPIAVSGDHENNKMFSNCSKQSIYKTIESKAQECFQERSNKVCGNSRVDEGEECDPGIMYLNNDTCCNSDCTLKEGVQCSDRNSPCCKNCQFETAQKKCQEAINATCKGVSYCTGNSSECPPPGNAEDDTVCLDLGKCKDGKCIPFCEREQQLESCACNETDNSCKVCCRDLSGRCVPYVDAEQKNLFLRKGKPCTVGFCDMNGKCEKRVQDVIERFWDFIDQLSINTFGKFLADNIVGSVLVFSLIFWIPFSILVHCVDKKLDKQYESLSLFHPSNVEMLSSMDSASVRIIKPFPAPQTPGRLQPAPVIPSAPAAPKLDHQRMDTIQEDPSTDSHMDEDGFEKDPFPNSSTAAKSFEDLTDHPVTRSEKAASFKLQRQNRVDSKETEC

Cytochrome P450 2C9 = Cytochrome P450 2C9 (Homo sapiens, UniProt P11712); conditions: Potency
Chain of Cytochrome P450 2C9 (P11712 whole entry): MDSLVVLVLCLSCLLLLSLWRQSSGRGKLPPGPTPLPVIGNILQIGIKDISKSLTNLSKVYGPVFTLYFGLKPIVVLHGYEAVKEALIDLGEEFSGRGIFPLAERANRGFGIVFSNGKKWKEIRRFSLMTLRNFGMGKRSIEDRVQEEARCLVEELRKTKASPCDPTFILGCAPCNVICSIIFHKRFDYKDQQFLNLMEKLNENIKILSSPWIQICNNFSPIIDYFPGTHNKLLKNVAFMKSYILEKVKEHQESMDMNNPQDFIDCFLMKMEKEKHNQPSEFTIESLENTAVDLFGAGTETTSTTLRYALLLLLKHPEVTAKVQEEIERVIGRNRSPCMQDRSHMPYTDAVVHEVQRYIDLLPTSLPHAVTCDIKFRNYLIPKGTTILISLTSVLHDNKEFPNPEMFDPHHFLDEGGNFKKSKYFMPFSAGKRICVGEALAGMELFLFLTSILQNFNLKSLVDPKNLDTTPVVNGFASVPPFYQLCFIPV

[11] = target: Eukaryotic translation initiation factor 4E (Mus musculus, UniProt P63073); test: blockers of eIF4G binding by eIF4E – biochemical, TR-FRET, dose response (AID 855); type: functional;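 note: potency for disrupting eIF4E binding to eIF4GI seen as loss of FRET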
Chain of Eukaryotic translation initiation factor 4E (P63073 whole entry): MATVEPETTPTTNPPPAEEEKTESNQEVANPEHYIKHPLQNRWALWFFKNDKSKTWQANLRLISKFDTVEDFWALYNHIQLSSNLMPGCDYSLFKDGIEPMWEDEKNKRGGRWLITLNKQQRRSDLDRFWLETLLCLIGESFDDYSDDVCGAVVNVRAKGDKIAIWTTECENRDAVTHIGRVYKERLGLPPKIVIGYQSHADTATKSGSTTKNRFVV

[12] = viability loss in Vero cells – cytotoxicity control for Vif-APOBEC3G degradation inhibitor project, dose response (AID 1117358); type: functional; conditions: Vero
H9c2 = test: cells; type: functional, cell-based; conditions: Rattus norvegicus, H9c2, Myocardium;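 note: confirmatory concentration-response retest of ultra-high-throughput screening hits for modulation of myocardial damage; cell death induced by hydrogen peroxide oxidative stress; compound pretreatment for 60 min then peroxide exposure for 2 h; potency is for protecting the cells against peroxide damage rather than for killing them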
cells [13] = type: functional, cell-based
cells [14] = type: functional, cell-based; remark: listed apart in the source
[15] = target: T3, Trace amine-associated receptor 1 (Homo sapiens, UniProt Q96RJ0); test: Counterscreen for agonists of the human trace amine associated receptor 1 (hTAAR1): Fluorescence-based cell-based high throughput dose response assay to identify hTAAR1 agonist that also desensitize TAAR1 receptor response.; type: functional
T3 sequence (Q96RJ0 whole entry): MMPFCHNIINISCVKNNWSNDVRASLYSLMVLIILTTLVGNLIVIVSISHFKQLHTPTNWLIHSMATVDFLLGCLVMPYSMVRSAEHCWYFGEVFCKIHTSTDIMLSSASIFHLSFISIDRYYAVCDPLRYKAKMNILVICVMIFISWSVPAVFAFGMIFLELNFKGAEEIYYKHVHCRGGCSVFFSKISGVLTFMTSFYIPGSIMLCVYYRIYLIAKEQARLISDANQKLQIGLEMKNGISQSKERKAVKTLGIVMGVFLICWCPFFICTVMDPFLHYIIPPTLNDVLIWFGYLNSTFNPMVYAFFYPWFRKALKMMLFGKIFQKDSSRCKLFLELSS

[16] = target: T3, Trace amine-associated receptor 1; test: Fluorescence-based cell-based high throughput dose response assay to identify agonists of the human trace amine associated receptor 1 (TAAR1).; type: functional
[17] = HEK-293T viability loss after treatment – luminescence, T-cell screen hits, cytotoxicity control for TCR NF-kB inhibitor project, dose response (AID 489026); type: functional, cell-based;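 note: cells exposed to compound about 14 hours before the viability readout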
Paired box protein Pax-8 = Paired box protein Pax-8 (Homo sapiens, UniProt Q06710); test: PAX8 transcriptional activity inhibition in RMG-I – RMG-I cells, luciferase, cherry-pick, dose response (AID 687027); type: functional, cell-based;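 note: luciferase reporter driven by Pax8 target thyroperoxidase promoter measured by SteadyGlo luminescence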
Chain of Paired box protein Pax-8 (Q06710 whole entry): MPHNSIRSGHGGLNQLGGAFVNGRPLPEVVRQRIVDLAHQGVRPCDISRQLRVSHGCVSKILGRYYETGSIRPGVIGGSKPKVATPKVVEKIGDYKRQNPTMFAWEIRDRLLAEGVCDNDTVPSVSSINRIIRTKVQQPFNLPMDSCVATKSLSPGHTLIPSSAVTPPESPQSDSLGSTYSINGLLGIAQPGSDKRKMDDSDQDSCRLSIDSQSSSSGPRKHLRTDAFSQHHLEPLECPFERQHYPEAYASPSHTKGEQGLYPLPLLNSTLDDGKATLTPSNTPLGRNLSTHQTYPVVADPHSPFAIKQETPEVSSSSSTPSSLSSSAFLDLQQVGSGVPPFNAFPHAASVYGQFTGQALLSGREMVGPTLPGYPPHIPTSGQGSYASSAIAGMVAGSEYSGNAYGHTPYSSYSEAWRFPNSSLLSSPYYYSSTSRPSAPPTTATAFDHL

[18] = OVCAR-3 cell viability loss – plate reader, dry powder samples, PAX8 inhibitor project, dose response (AID 743044); type: functional, cell-based
[19] = IGROV1 cell killing – plate reader, dry powder samples, PAX8 inhibitor project, dose response (AID 743043); type: functional, cell-based; conditions: IGROV-1

O=C(Nc1nc2cc3c(cc2s1)OCO3)c1ccco1
AC50 [1]: > 52 µM (inactive) | IC50 (Prothrombin): 9.57 µM (active) | AC50 [2]: 4.79 µM (active) | AC50 (HEK293): 1.57 µM (active) | AC50 [3]: > 52 µM (inactive) | AC50 [4]: 4.2 µM (active)

Cc1ccc(NC(=O)C2CCCN2S(=O)(=O)c2cccc3cccnc23)cc1F (configuration not stated)
CC50 [5]: 39.4 µM (active) | Ki (fMet-Leu-Phe receptor): > 66.7 µM (inactive)

O=C1C(Cl)=C(N2CCOCC2)C(=O)N1c1cc(Cl)cc(Cl)c1
IC50 (Bcl-2-related protein A1 [6]): 1.33 µM (active) | IC50 (Bcl-2-related protein A1 [7]): 1.63 µM (active) | IC50 [8]: > 10 µM (inconclusive)

COc1cccc(CN(C)C(=O)CCc2nnc(-c3ccsc3)o2)c1
IC50 (Prothrombin): > 50 µM (not active)

c1ccc(Nc2cc(-c3ccoc3)ncn2)cc1
AC50 (Cytochrome P450 2D6): 20 µM (inconclusive)

COCC(=O)n1nc(-c2ccccc2)nc1NCc1ccccc1
IC50 (Prothrombin): 0.246 µM (active)

COc1ccc(NS(=O)(=O)c2cc(NC(=O)c3cccs3)ccc2N2CCCC2)cc1
IC50 [9]: > 69.5 µM (inactive) | IC50 [10]: > 69.5 µM (inactive)

C=C1C(=O)O[C@H]2C[C@@]3(C)CCCC(=C)[C@@H]3C[C@H]12
AC50 (Cytochrome P450 2C9): 39.8 µM (inconclusive) | AC50 (Cytochrome P450 2D6): 10 µM (inconclusive)

CC(C)[C@@H](CC(=O)N[C@@H]1CCCC[C@H]1C(=O)N[C@H](CC(=O)N[C@@H](CCC(=O)O)CC(=O)O)Cc1ccccc1)NC(=O)C[C@H](Cc1ccccc1)NC(=O)[C@@H]1CNCC[C@H]1N
AC50 (Cytochrome P450 2C9): 6.31 µM (inconclusive)

O=C(c1ccccc1)N(Nc1ccccc1)c1ccccc1
IC50 [11]: 50 µM (inactive)

CN1C(=O)CSc2ccc(NC(=O)NCc3cccnc3)cc21
CC50 [12]: > 40 µM (active)

C=CC1=C(C)C2=NC/1=C\C1=[N+]3[Zn-2][N+]4=C(/C=C5N=C(/C=C3/C(CCC(=O)O)=C1C)C(CCC(=O)O)=C\5C)C(C)=C(C=C)/C4=C/2
AC50 (Cytochrome P450 2C9): 39.8 µM (inconclusive) | AC50 (Cytochrome P450 2D6): 25.1 µM (inconclusive)

O=C1C(Cl)=C(Cl)C(=O)N1c1ccc(C(F)(F)F)cc1
IC50 (Bcl-2-related protein A1 [6]): 1.46 µM (active) | IC50 (Bcl-2-related protein A1 [7]): 0.999 µM (active) | IC50 [8]: > 100 µM (not active)

O=C(C1=C(O)C(=O)N(c2ncccn2)C1c1ccc(Cl)cc1)c1ccco1 (configuration not stated)
Ki (fMet-Leu-Phe receptor): > 66.7 µM (inactive)

Cc1ccc(C(=O)OC2CCS(=O)(=O)c3sccc32)cc1 (configuration not stated)
CC50 [12]: 32.7 µM (active)

O=c1c2ccccc2c(-c2ccccc2)nn1-c1cc(Cl)ccc1[N+](=O)[O-]
CC50 [12]: > 40 µM (active)

Clc1ccc(-n2nnc(-c3cccnc3)n2)cn1
IC50 (Bcl-2-related protein A1 [6]): > 100 µM (not active) | IC50 (Bcl-2-related protein A1 [7]): > 100 µM (not active)

O=C1C2CC=CCC2C(=O)N1c1nc(-c2ccco2)n[nH]1 (configuration not stated)
IC50 [8]: > 100 µM (not active)

COc1ccc2nc(O)c(-c3nnn(-c4ccc(F)cc4)n3)cc2c1
IC50 (Bcl-2-related protein A1 [6]): > 100 µM (not active) | IC50 (H9c2): 37.1 µM (inactive) | IC50 (Bcl-2-related protein A1 [7]): > 100 µM (not active)

CC1Oc2ccccc2N(Cc2ccccc2Cl)C1=O (configuration not stated)
Ki (fMet-Leu-Phe receptor): > 66.7 µM (inactive)

COc1cc(SC)ccc1C(=O)NCCOc1ccc(C)c(C)c1
IC50 [9]: 27.5 µM (inactive) | IC50 [10]: > 69.5 µM (inactive)

O=C(Nc1ccccc1)Nc1ccncc1
IC50 (cells [13]): > 29.9 µM (inactive) | EC50 (cells [14]): > 29.9 µM (inactive) | IC50 [15]: 7.05 µM (active) | EC50 [16]: 1.02 µM (active)

O=C(C[n+]1ccccc1)Nc1nc2ccccc2s1
IC50 [9]: > 69.5 µM (inactive) | IC50 [10]: > 69.5 µM (inactive)

COc1ccc(-n2nnnc2-c2ccccc2)cc1
IC50 [17]: > 80 µM (inactive) | CC50 [12]: > 40 µM (active)

CCCCN(Cc1ccccc1)S(=O)(=O)c1cc2c(cc1Br)CC(C)N2C(C)=O (configuration not stated)
AC50 [1]: 28.8 µM (active) | AC50 [2]: 58.1 µM (active) | IC50 [9]: 12.6 µM (inactive) | IC50 [10]: > 69.5 µM (inactive) | AC50 [3]: 46 µM (active)

COc1cccc(S(=O)(=O)Nc2ccc3c(c2)[C@@H]2C[C@@H](CC(=O)NCc4ccc(Cl)cc4)O[C@@H](CO)[C@@H]2O3)c1
AC50 (Paired box protein Pax-8): 3.36 µM (active) | AC50 [18]: 25.9 µM (active) | AC50 [19]: 60.3 µM (active)

NC(Cc1ccccc1)c1csc(Nc2ccc(C(=O)NCCO)cc2)n1 (configuration not stated)
IC50 (cells [13]): > 29.9 µM (inactive) | EC50 (cells [14]): > 29.9 µM (inactive) | IC50 [15]: > 29.9 µM (inactive) | EC50 [16]: 4.32 µM (active)

CCCCCCCCN1C(=O)[C@@H](CC(=O)NCCc2ccccc2OC)C[C@@]2(C(=O)OC)C1=C[C@H](C1CCCC1)O[C@@H]2C
IC50 (cells [13]): > 29.9 µM (inactive) | EC50 (cells [14]): > 29.9 µM (inactive) | IC50 [15]: 8.54 µM (active) | EC50 [16]: 3.22 µM (active)

COc1ccc2c(=O)c(N3C(=O)c4ccccc4C3=O)c(C)oc2c1
Ki (fMet-Leu-Phe receptor): > 66.7 µM (inactive)

Cc1cc(N/N=C/c2ccccc2O)nc(N2CCOCC2)n1
IC50 (cells [13]): > 29.9 µM (inactive) | EC50 (cells [14]): > 29.9 µM (inactive) | IC50 [15]: 2.52 µM (active) | EC50 [16]: > 29.9 µM (inactive)
